Source: patent publication US20260218197A1, “EXTRACELLULAR VESICLE SECRETION REDUCING AGENT FOR REDUCING EXTRACELLULAR VESICLE SECRETION, AND USE OF THE SAME” (THEORIA SCIENCE INC., priority 2020, published 2026)

Key:
PSAT1 = PSAT1 gene (qPCR) and protein (Western blotting) expression in transformants; type: cell-based, human; conditions: HCT116 and A549 transformants
Method: In a 6-well plate, 2 mL of the cancer cell suspension was seeded at 1.0×10^5 cells/well and incubated for 24 hours. Thereafter, 10 nmol/L of the intended nucleic acid molecules were added thereto, and the cells were transfected with the nucleic acid molecules using a transfection reagent (product name: DharmaFECT Transfection Reagent 1). The nucleic acid molecules used were the above-described miRNA and the above-described siRNA. After the incubation for 24 hours, the medium was replaced with the above-described advanced RPMI 1640 medium or advanced DMEM medium containing the antibiotic-antimycotic agent and 2 mmol/L-glutamine (Gibco). 48 hours after the replacement, total RNA was extracted, and the expression of the gene of interest was measured by qPCR. […]
First, expression of the PSAT1 gene was detected in the above-described transformants (miR-891b) and the control transformants (NC) therefor. Then, assuming that the expression levels in the transformants (NC) were 1, the relative values of the expression levels in the respective transformants (miR-891b) were determined. […] Also, for the transformants (miR-891b) and the control transformants (NC), the PSAT1 protein expression was detected by Western blotting. As a control, β-actin was also detected. […]

lung cancer cells A549 [1] = assay: CD63 immunofluorescence / coimmunostaining (intracellular EV accumulation); type: cell-based, human; conditions: A549 transformants
Method: (§1) Colorectal cancer cells HCT116 and lung cancer cells A549 were transfected with siRNA (siPSAT1) in the same manner as in the item (2) in Example A1, and EV biogenesis after PSAT1 silencing was examined. For the respective silenced transformants, CD63 and PSAT1 were examined by immunofluorescence.
(§2) Further, coimmunostaining of the EV marker CD63 and also an early endosome marker EEA1 or a late endosome marker Rab7 was conducted for the PSAT1-silenced transformants. As a result, no overlap was observed between EEA1 and CD63 in either the PSAT1-silenced transformants or the negative control transformants. […] On this account, the CD63 single-positive area was measured based on the intensity. […] This confirmed that EVs had accumulated in the cells.
(§3) Specifically, the test was performed in the following manner. Colorectal cancer cells HCT116 and lung cancer cells A549 were each seeded in a 6-well plate at 1.5×10^5 cells/well (Day 0), and incubated for 24 hours in a medium (DMEM with 10% FBS, 1×anti-anti medium). After the incubation (Day 1), the above-described medium was removed, and thereafter, a serine-deficient medium and an inhibitor solution were added to the wells. The inhibitor solution was prepared by dissolving NCT-503 in DMSO, and the concentration of the inhibitor per well was set to 2.5 μmol/L. Then, after another 48 hours of incubation (Day 3), the medium in the wells was collected and the cells in the wells were counted. As negative controls (NC), the test was performed in the same manner, except that DMSO was added instead of the inhibitor solution.
(§4) EVs accumulated in the cells were analyzed in the following manner. Specifically, the collected cells were immunostained, the CD63 single-positive area was measured based on the fluorescence intensity, and the fluorescence intensity measured in the area was divided by the number of nuclei to determine the amount of EVs accumulated in each cell. On the other hand, secreted EVs were collected from the collected medium and then subjected to the NTA. In the NTA, the amount of secreted EVs was determined as a relative value calculated assuming that the amount of the secreted EVs in the negative control was 1.

[2] = test system: colorectal cancer cells HCT116; assay: as above; type: cell-based, human; conditions: HCT116 transformants
Method: as §1, §2, §3, §4

lung cancer cells A549 [3] = assay: Amount of secreted EVs by the ExoScreen method; type: cell-based, human; conditions: A549 transformants, CMs and EV fractions, compared with transformants (NC)
Method: (§5) EV detection was performed using an AlphaLISA reagent (Perkin Elmer) composed of AlphaScreen streptavidin-coated donor beads (6760002), AlphaLISA unconjugated acceptor beads (6062011), and an AlphaLISA universal buffer (AL001F), a 96-well half-area white plate (6005560, Perkin Elmer), and a detection device EnSpire Alpha 2300 Mutilabel plate reader (Perkin Elmer). Specifically, the EV detection was performed as follows. Each well of the plate was filled with 5 μL of EVs or 10 μL of CM (cell culture supernatant), 10 μL of a 5 nmol/L biotinylated antibody solution prepared using the above-described buffer, and 10 μL of 50 µg/mL AlphaLISA acceptor bead-conjugated antibody. […] Next, luminescence in the wells of the plate was measured using the detection device with the excitation wavelength set to 680 nm and the emission detection wavelength set to 615 nm. […]
(§6) In a 6-well plate, 2 mL of the cancer cell suspension was seeded at 1.0×10^5 cells/well and incubated for 24 hours. […] 48 hours after the replacement, total RNA was extracted, and the expression of the gene of interest was measured by qPCR.
(§7) Colorectal cancer cells HCT116 and lung cancer cells A549 were each transfected with miR-891b. […] Then, according to the ExoScreen method described above, the amounts of the secreted EVs were measured by measuring the signal intensities. […]

[4] = test system: colorectal cancer cells HCT116; assay: Amount of secreted EVs by the ExoScreen method; type: cell-based, human; conditions: HCT116 transformants, CMs and EV fractions, compared with transformants (NC)
Method: as §5, §6, §7

[5] = test system: 3′ UTR of the human PSAT1 mRNA; assay: Dual-Luciferase reporter assay with PSAT1 3′ UTR in HEK293 cells; type: cell-based; conditions: 48 hours after transfection
Method: Thus, the effect of miR-891b was examined using the wild-type PSAT1 gene in which the above-described 7-base region in the 3′ UTR is the wild-type sequence (SEQ ID NO: 3: AAGTTGC) and a mutant-type PSAT1 gene in which the above-described 7-base region in the 3′ UTR is a mutated sequence (SEQ ID NO: 4: TTCAACG). Specifically, the following experiment was performed. The wild-type PSAT1 gene or the mutant-type PSAT1 gene was subcloned into a plasmid vector psiCHECK2, and human embryonic kidney cells (HEK293 cells) were transfected with this recombinant vector together with miR-891b or the negative control miRNA using Lipofectamine 3000. 48 hours after the transfection, the luciferase activity of the transformants was quantified using a plate reader according to the operating procedure of a Dual-Luciferase Reporter Assay System.
The results obtained are shown in (D) of FIG. 3.

## miR-891b: nucleic acid molecule miRNA, SEQ ID NO: 1: GCAACUUACCUGAGUCAUUGA (Product No. 4464066, Ambion) (listed as RNA, chemistry not given here)
PSAT1; Western blotting, vs transformants (NC)
  PSAT1 protein expression: reduced
PSAT1; relative to transformants (NC)
  PSAT1 gene expression: reduced
Lung cancer cells A549 [1]
  CD63 (EV marker) in cytoplasm by immunofluorescence: accumulation of CD63
[2]
  CD63 (EV marker) in cytoplasm by immunofluorescence: accumulation of CD63
Lung cancer cells A549 [3]
  relative value of the amount of secreted EVs (ExoScreen method): significantly lower
[4]
  relative value of the amount of secreted EVs (ExoScreen method): significantly lower
[5]; mutated sequence in miR-891b recognition region
  PSAT1 expression level (relative luciferase activity): did not reduce
[5]; wild-type PSAT1 3′ UTR sequence
  PSAT1 expression level (relative luciferase activity): significantly reduced
